Columns and labels:
NOMO1 [1] = test: AUC of viability dose-response curve (% viability x log10 dose units); higher = less sensitive; conditions: 48 h
In short: (§1)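 Seeding of medium-adapted leukemia cells was at 500 or 1000 cells/well in 1536-well plates, followed by 48 h at 37°C with library compounds in DMSO at 11 threefold doses from 47 μM to 0.79 nM. CellTiter-Glo One luminescence was normalised per plate to DMSO and cell-free wells and fitted as a four-parameter log-logistic function of log10 dose. Area under the curve was integrated by trapezoidal rule, with curves exceeding full viability scaled and curves failing quality control removed.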

SEM cells [2] = test: as above; conditions: 48 h
In short: as §1

P12-Ichikawa [3] = test: as above; conditions: 48 h
In short: as §1

SEM cells [4] = test: cell viability relative to DMSO control; higher = less cytotoxic; conditions: 48 h
In short: (§2)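 Viability, reported as a per-plate percentage of DMSO wells with cell-free wells as background, came from CellTiter-Glo One luminescence. Reading took place after 48 h at 37°C. Before that, NOMO1 or SEM (500 cells/well) or P12-Ichikawa (1000 cells/well) leukemia cells, adapted for at least four passages in each medium, were seeded in 1536-well plates (5 μl) and pin-dosed with library compounds in DMSO, 47 μM to 0.79 nM over 11 threefold points.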

P12-Ichikawa [5] = test: as above; conditions: HPLM + 10% dialyzed FBS, 48 h
In short: as §2

NOMO1 [6] = test: as above; conditions: 48 h
In short: as §2

NCCc1c[nH]cn1
AUC of viability dose-response curve
Conditions | NOMO1 [1] | P12-Ichikawa [3] | SEM cells [2]
HPLM + 10% dialyzed FBS | 466 | 456 | 473
RPMI 5 mM glucose + 10% FBS | 460 | 449 | 437
RPMI 5 mM glucose + 10% dialyzed FBS | 444 | 461 | 432

CCOC(=O)[C@H](CCc1ccccc1)N[C@H]1CS[C@H](c2cccs2)CN(CC(=O)O)C1=O.Cl
AUC of viability dose-response curve
Conditions | NOMO1 [1] | P12-Ichikawa [3] | SEM cells [2]
HPLM + 10% dialyzed FBS | 384 | 400 | 461
RPMI 5 mM glucose + 10% FBS | 408 | 401 | 437
RPMI 5 mM glucose + 10% dialyzed FBS | 395 | 421 | 468

C[C@@H]1C(=O)OC2[C@H](O)[C@]34[C@H]5C[C@@H](C(C)(C)C)[C@]36[C@@H](OC(=O)[C@@H]6O)O[C@@]4(C(=O)O5)[C@]21O (some centres not stated)
SEM cells [4], HPLM + 10% dialyzed FBS
Conditions | cell viability [%]
0.000781 µM | 116
0.00234 µM | 102
0.00702 µM | 129
0.0211 µM | 119
0.0632 µM | 127
0.19 µM | 116
0.569 µM | 117
1.71 µM | 119
5.12 µM | 91.8
15.4 µM | 107
46.1 µM | 65.8

AUC of viability dose-response curve
Conditions | NOMO1 [1] | P12-Ichikawa [3] | SEM cells [2]
HPLM + 10% dialyzed FBS | 450 | 452 | 451
RPMI 5 mM glucose + 10% FBS | 457 | 445 | 437
RPMI 5 mM glucose + 10% dialyzed FBS | 457 | 450 | 424

CC/1=C(\CCN2CCC(CC2)C3=NOC4=C3C=CC(=C4)F)C(=O)N/5CCCCC5=N1
SEM cells [4], HPLM + 10% dialyzed FBS
Conditions | cell viability [%]
0.000781 µM | 102
0.00234 µM | 91.1
0.00702 µM | 106
0.0211 µM | 103
0.0632 µM | 122
0.19 µM | 124
0.569 µM | 72.9
1.71 µM | 45.9
5.12 µM | 112
15.4 µM | 115
46.1 µM | 110

Conditions | AUC of viability dose-response curve | cell viability [%]
NOMO1 [1], HPLM + 10% dialyzed FBS | 457 | –
NOMO1 [1], RPMI 5 mM glucose + 10% FBS | 477 | –
NOMO1 [1], RPMI 5 mM glucose + 10% dialyzed FBS | 472 | –
P12-Ichikawa [3], HPLM + 10% dialyzed FBS | 463 | –
P12-Ichikawa [3], RPMI 5 mM glucose + 10% FBS | 457 | –
P12-Ichikawa [3], RPMI 5 mM glucose + 10% dialyzed FBS | 476 | –
P12-Ichikawa [5], 0.000781 µM | – | 125
P12-Ichikawa [5], 0.00234 µM | – | 120
P12-Ichikawa [5], 0.00702 µM | – | 122
P12-Ichikawa [5], 0.0211 µM | – | 118
P12-Ichikawa [5], 0.0632 µM | – | 130
P12-Ichikawa [5], 0.19 µM | – | 124
P12-Ichikawa [5], 0.569 µM | – | 127
P12-Ichikawa [5], 1.71 µM | – | 116
P12-Ichikawa [5], 5.12 µM | – | 126
P12-Ichikawa [5], 15.4 µM | – | 133
P12-Ichikawa [5], 46.1 µM | – | 127
SEM cells [2], HPLM + 10% dialyzed FBS | 475 | –
SEM cells [2], RPMI 5 mM glucose + 10% FBS | 473 | –
SEM cells [2], RPMI 5 mM glucose + 10% dialyzed FBS | 468 | –

Nc1nc(NCCNc2ncc(-n3ccnc3)c(-c3ccc(Cl)cc3Cl)n2)ccc1[N+](=O)[O-]
cell viability [%]
Conditions | HPLM + 10% dialyzed FBS | RPMI 5 mM glucose + 10% FBS | RPMI 5 mM glucose + 10% dialyzed FBS
NOMO1 [6], 0.000781 µM | – | 105 | 92.9
NOMO1 [6], 0.00234 µM | – | 124 | 128
NOMO1 [6], 0.00702 µM | – | 126 | 119
NOMO1 [6], 0.0211 µM | – | 128 | 136
NOMO1 [6], 0.0632 µM | – | 127 | 155
NOMO1 [6], 0.19 µM | – | 141 | 160
NOMO1 [6], 0.569 µM | – | 144 | 139
NOMO1 [6], 1.71 µM | – | 157 | 147
NOMO1 [6], 5.12 µM | – | 141 | 168
NOMO1 [6], 15.4 µM | – | 151 | 147
NOMO1 [6], 46.1 µM | – | 165 | 150
SEM cells [4], 0.000781 µM | 120 | – | 135
SEM cells [4], 0.00234 µM | 134 | – | 124
SEM cells [4], 0.00702 µM | 112 | – | 119
SEM cells [4], 0.0211 µM | 135 | – | 129
SEM cells [4], 0.0632 µM | 123 | – | 138
SEM cells [4], 0.19 µM | 132 | – | 123
SEM cells [4], 0.569 µM | 132 | – | 128
SEM cells [4], 1.71 µM | 99.6 | – | 116
SEM cells [4], 5.12 µM | 104 | – | 93.4
SEM cells [4], 15.4 µM | 121 | – | 116
SEM cells [4], 46.1 µM | 107 | – | 103

Conditions | AUC of viability dose-response curve | cell viability [%]
NOMO1 [1], HPLM + 10% dialyzed FBS | 460 | –
NOMO1 [1], RPMI 5 mM glucose + 10% FBS | 412 | –
NOMO1 [1], RPMI 5 mM glucose + 10% dialyzed FBS | 442 | –
P12-Ichikawa [3], HPLM + 10% dialyzed FBS | 464 | –
P12-Ichikawa [3], RPMI 5 mM glucose + 10% FBS | 447 | –
P12-Ichikawa [3], RPMI 5 mM glucose + 10% dialyzed FBS | 466 | –
P12-Ichikawa [5], 0.000781 µM | – | 114
P12-Ichikawa [5], 0.00234 µM | – | 119
P12-Ichikawa [5], 0.00702 µM | – | 125
P12-Ichikawa [5], 0.0211 µM | – | 123
P12-Ichikawa [5], 0.0632 µM | – | 126
P12-Ichikawa [5], 0.19 µM | – | 132
P12-Ichikawa [5], 0.569 µM | – | 133
P12-Ichikawa [5], 1.71 µM | – | 131
P12-Ichikawa [5], 5.12 µM | – | 134
P12-Ichikawa [5], 15.4 µM | – | 130
P12-Ichikawa [5], 46.1 µM | – | 125
SEM cells [2], HPLM + 10% dialyzed FBS | 452 | –
SEM cells [2], RPMI 5 mM glucose + 10% FBS | 446 | –
SEM cells [2], RPMI 5 mM glucose + 10% dialyzed FBS | 450 | –

N[C@@H](Cc1ccc(O)c(O)c1)C(=O)O
cell viability [%]
Conditions | HPLM + 10% dialyzed FBS | RPMI 5 mM glucose + 10% FBS | RPMI 5 mM glucose + 10% dialyzed FBS
NOMO1 [6], 0.000781 µM | 121 | – | –
NOMO1 [6], 0.00234 µM | 133 | – | –
NOMO1 [6], 0.00702 µM | 117 | – | –
NOMO1 [6], 0.0211 µM | 118 | – | –
NOMO1 [6], 0.0632 µM | 144 | – | –
NOMO1 [6], 0.19 µM | 131 | – | –
NOMO1 [6], 0.569 µM | 122 | – | –
NOMO1 [6], 1.71 µM | 136 | – | –
NOMO1 [6], 5.12 µM | 131 | – | –
NOMO1 [6], 15.4 µM | 116 | – | –
NOMO1 [6], 46.1 µM | 55.3 | – | –
SEM cells [4], 0.000781 µM | 86.4 | 108 | 92.1
SEM cells [4], 0.00234 µM | 101 | 100 | 97.6
SEM cells [4], 0.00702 µM | 102 | 107 | 108
SEM cells [4], 0.0211 µM | 100 | 108 | 116
SEM cells [4], 0.0632 µM | 107 | 116 | 117
SEM cells [4], 0.19 µM | 108 | 115 | 116
SEM cells [4], 0.569 µM | 108 | 106 | 117
SEM cells [4], 1.71 µM | 111 | 116 | 123
SEM cells [4], 5.12 µM | 122 | 126 | 122
SEM cells [4], 15.4 µM | 107 | 121 | 128
SEM cells [4], 46.1 µM | 109 | 127 | 105

Conditions | AUC of viability dose-response curve | cell viability [%]
NOMO1 [1], HPLM + 10% dialyzed FBS | 459 | –
NOMO1 [1], RPMI 5 mM glucose + 10% FBS | 475 | –
NOMO1 [1], RPMI 5 mM glucose + 10% dialyzed FBS | 456 | –
P12-Ichikawa [3], HPLM + 10% dialyzed FBS | 471 | –
P12-Ichikawa [3], RPMI 5 mM glucose + 10% FBS | 454 | –
P12-Ichikawa [3], RPMI 5 mM glucose + 10% dialyzed FBS | 466 | –
P12-Ichikawa [5], 0.000781 µM | – | 122
P12-Ichikawa [5], 0.00234 µM | – | 124
P12-Ichikawa [5], 0.00702 µM | – | 118
P12-Ichikawa [5], 0.0211 µM | – | 119
P12-Ichikawa [5], 0.0632 µM | – | 130
P12-Ichikawa [5], 0.19 µM | – | 123
P12-Ichikawa [5], 0.569 µM | – | 127
P12-Ichikawa [5], 1.71 µM | – | 122
P12-Ichikawa [5], 5.12 µM | – | 125
P12-Ichikawa [5], 15.4 µM | – | 131
P12-Ichikawa [5], 46.1 µM | – | 121
SEM cells [2], HPLM + 10% dialyzed FBS | 456 | –
SEM cells [2], RPMI 5 mM glucose + 10% FBS | 433 | –
SEM cells [2], RPMI 5 mM glucose + 10% dialyzed FBS | 458 | –

Source: the supplement of paper PMC11451515
